From paper PMC12067444, “Synthesis and Pharmacological Characterization of Novel Peripheral Cannabinoid-1 Receptor Blockers Based on a Tricyclic Scaffold” (Journal of Medicinal Chemistry, 2025)

Assays:
mice = assay: Cataleptic behavior (bar test) induced by WIN-55,212; format: in vivo, mouse; details: rimonabant 10 mg/kg PO, BNS808 1 mg/kg; 30 min before WIN-55,212 3 mg/kg IP; bar test at 60 min
Description: Catalepsy was assayed using the bar test. Mice were taken out of their home cages, and their forepaws were placed on a horizontal bar measuring 0.5 cm in diameter, positioned 4 cm above the bench surface. Typically, vehicle-treated mice released the bar within 2 s. Cataleptic behavior was defined as the mice remaining motionless, grasping onto the bar, with an arbitrary cutoff of 30 s. The CB1R antagonists, including rimonabant at doses 1 and 10 mg/kg and BNS808 at a dose of 1 mg/kg, were administered 30 min before the IP injection of 3 mg/kg WIN-55,212 (a CB1R agonist). The test was conducted 60 min after the administration of the agonist.

[1] = Stability in simulated gastric fluid (SGF); format: in vitro ADME
[2] = Brain compound levels in the CNS side-effect study (Figure 2H); format: in vivo; details: male, C57Bl/6J, mouse, in vivo; BNS808 PO (1 or 10 mg/kg, dose not stated), 1 h after administration
Description: The ability of BNS808 and rimonabant (as a positive control) to induce centrally mediated hyperactivity in mice (A–C). Wild-type, male, C57Bl/6J mice received a single dose of rimonabant (10 mg/kg, PO), BNS808 (1 or 10 mg/kg, PO) or vehicle, and the Promethion High-Definition Behavioral Phenotyping System monitored the activity profile. In addition, the ability of BNS808 and rimonabant (as a positive control) to inhibit the hypomotility induced by a CB1R receptor agonist (HU210; 30 μg/kg, IP) was tested in wild-type, male, C57Bl/6J mice which received a single dose of rimonabant (10 mg/kg, PO) or BNS808 (1 or 10 mg/kg, PO) or vehicle (D–F). […] Data represent the mean ± SEM from 4 to 8 mice per group. *P < 0.05 vs Vehicle-treated control. ^#P < 0.05 vs rimonabant.

[3] = Tissue distribution after chronic oral administration in diet-induced obese mice; format: in vivo; details: C57Bl/6J, mouse, brain; 1 mg/kg PO for 24 days, DIO mice, 24 h after last dose; read-out: brain concentration after chronic treatment
Description: Tissue distribution after chronic administration was conducted similarly, except tissue collection was performed 24 h after the last drug administration and analyzed in the same manner as previously described.
Supplementary F igure 2. BNS808 biodistribution and pharm acokinet ics aft er chronic P O adm inist rat ion. The accumulation of BNS808 in organs/plasma was evaluated by analyzing the BNS808 levels in the plasma, brain, and liver post-chronic administration of 1 mg/kg PO for 24 days in diet-induced obese mice. Data r epr esent the mean ± SE M of 4 mice per gr oup.
(1 picture or pasted object on this page, not shown here)

[4] = tested on: bacteria strains TA98, TA100; assay: Mini-Ames assay, overall result; format: cell-based
Description: Mini Am es assay. To conduct the assay, top agar was melted with a microwave and maintained at a temper atur e ≥47 °C in a water bath. T he assay was performed using a heat block set to 45 °C ± 2 °C. 12 × 75 mm test tubes were prepared in duplicates. For each concentration, the following components were added sequentially to a test tube:
[…] The mixture was vortexed and then dispensed into w ells using a dispo sable pipette. The plates wer e then incubated at 37±2 °C for approximately 48 to 72 hours.
BBbbbb BBBBbbbb BBBB = AAAAbbbbbbAAbb nnnnnnbbbbbb bboo bbbbAAbbbbbbbbnnbbbb oobbbb bbbb eeee dd bbbbbb AAbbbbnn gg AAAAbbbbbbAAbb nnnnnnbbbbbb bbBB bbbbAAbbbbbbbbnnbbbb BBbbbb DDDDDDDD nn bbAAbbbbaaAAbb AAbbbbnnaa The mutagenicity of the compound was determined by evaluating the number of revertant colonies in strains TA98 and TA100. A compound was […]
related and if the fold increase in revertants (F) was equal to or greater than 2 for […]
background lawn growth on the agar plates. A scoring system ranging from 0 to 4 […]
complete cytotoxicity, while scores 1, 2, and 3 represented 25%, 50%, and 75% growth, respectively. A score of 4 signified full '100%' growth. The background […]
background lawn and required magnification for visualization. […]

[5] = tested on: diet-induced obese C57Bl/6J mice; assay: Chronic treatment of diet-induced obese (DIO) mice; format: in vivo, mouse; details: vs vehicle
Description: To induce diet-induced obesity, the mice were fed a high-fat diet (HFD) containing 60% of calories from fat, 20% from protein, and 20% carbohydrates (Research Diet, D12492) for 16 weeks. HFD-fed obese mice were administered either vehicle or BNS808 (in SEDDs) orally at 1 mg/kg (dosing volume of 1 mL/kg) for 24 days. Daily monitoring of body weight was conducted throughout the experimental period. Total body fat and lean masses were assessed using the EchoMRI-100H (Echo Medical Systems LLC, Houston, TX, USA). At the end of week 20, mice were euthanized via cervical dislocation under anesthesia. Various tissues, including the kidneys, brain, liver, fat pads, and muscles, were harvested and snap-frozen or fixed in buffered 4% formalin. Trunk blood samples were collected for biochemical parameters analysis. […]

O=S(=O)(NC1CCCOc2c1nn(-c1ccccc1Cl)c2-c1ccc(Cl)cc1)c1ccc(Cl)cc1 (stereo not shown) [BNS808, 4-chloro-N-[2-(2-chlorophenyl)-3-(4-chlorophenyl)-5,6,7,8-tetrahydrooxepino[3,2-c]pyrazol-8-yl]benzenesulfonamide]
blockade of WIN-55,212-induced cataleptic behavior (mice): only rimonabant (10 mg/kg, PO) blocked the cataleptic behavior
amount in SGF with pepsin ([1]; 0 h): 2.753 mg
amount in SGF, no pepsin ([1]; 0 h): 2.826 mg
Initial amount (%) in SGF with pepsin ([1]; 1 h): 98%
Initial amount (%) in SGF, no pepsin ([1]; 1 h): 102%
amount in SGF with pepsin ([1]; 1 h): 2.69 mg
stability in SGF and SIF ([1]; summary column covering SGF and SIF): stable
Stability in SGF ([1]; with and without pepsin): Stable
concentration at 1 h [2]: 13 ng/g
concentration at 24 h [3]: ~20 ng/g
toxicity in mini-Ames assay ([4]; 31.25 to 1000 μg/well, TA98 and TA100): no toxicity
mini-Ames assay (mutagenic effect) ([4]; TA98 and TA100, with and without S9): nonmutagenic ^b
body weight ([5]; 1 mg/kg/day PO (in SEDDs) for 24 days): reduced body weight
fasting blood glucose ([5]; 1 mg/kg/day PO for 24 days): reduced the glucose levels in fasting conditions
glucose homeostasis (ipGTT) ([5]; 1 mg/kg/day PO for 24 days): trend toward substantial effects
lean body mass (EchoMRI) ([5]; 1 mg/kg/day PO for 24 days): significant increase in lean body mass
total body fat (EchoMRI) ([5]; 1 mg/kg/day PO for 24 days): reduction in total body fat
HDL levels ([5]; 1 mg/kg/day for 24 days): without affecting HDL levels
HDL/LDL ratio ([5]; 1 mg/kg/day for 24 days): increased HDL/LDL ratio
LDL levels ([5]; 1 mg/kg/day for 24 days): reduced LDL levels
hepatic steatosis and hepatocellular damage (histology) ([5]; 1 mg/kg/day for 24 days): reversing hepatic steatosis and hepatocellular damage
liver enzymes (ALT, AST, ALP) ([5]; 1 mg/kg/day for 24 days): significant reduction
liver triglyceride content ([5]; 1 mg/kg/day for 24 days): significant reduction in liver triglyceride content
total cholesterol ([5]; 1 mg/kg/day for 24 days): reduced total cholesterol
triglycerides levels (serum) ([5]; 1 mg/kg/day for 24 days): reduced
